Reference: PubChem BioAssay (NCI)
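Cells were grown in 96-well plates and exposed to each compound for 48 hours at five concentrations; endpoints were interpolated linearly between bracketing concentrations, or set to the highest concentration if not reached. GI50 marks 50% less growth. The concentration for full growth arrest is given as TGI.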

Experiments:
Assay in all cases: DTP human tumour cell line panel, 48 h
ACHN renal = tested on: ACHN renal
SK-OV-3 ovarian = tested on: SK-OV-3 ovarian
OVCAR-8 ovarian = tested on: OVCAR-8 ovarian
MCF7 breast = tested on: MCF7 breast
HOP-92 NSCLC = tested on: HOP-92 NSCLC
HS 578T breast = tested on: HS 578T breast
SK-MEL-5 melanoma = tested on: SK-MEL-5 melanoma
OVCAR-4 ovarian = tested on: OVCAR-4 ovarian
HCT-116 colon = tested on: HCT-116 colon
SR leukemia = tested on: SR leukemia

Structure (SMILES) | GI50 (ACHN renal) [µM] | TGI (ACHN renal) [µM] | GI50 (SK-OV-3 ovarian) [µM] | TGI (SK-OV-3 ovarian) [µM] | GI50 (OVCAR-8 ovarian) [µM] | TGI (OVCAR-8 ovarian) [µM] | GI50 (MCF7 breast) [µM] | TGI (MCF7 breast) [µM] | GI50 (HOP-92 NSCLC) [µM] | TGI (HOP-92 NSCLC) [µM] | GI50 (HS 578T breast) [µM] | TGI (HS 578T breast) [µM] | GI50 (SK-MEL-5 melanoma) [µM] | TGI (SK-MEL-5 melanoma) [µM] | GI50 (OVCAR-4 ovarian) [µM] | TGI (OVCAR-4 ovarian) [µM] | GI50 (HCT-116 colon) [µM] | TGI (HCT-116 colon) [µM] | GI50 (SR leukemia) [µM] | TGI (SR leukemia) [µM]
N#Cc1nc(-c2ccccc2)oc1S(=O)(=O)N1CCOCC1 | 1.76 | 3.15 | 56.2 | > 100 | 3.55 | 16.2 | 2.74 | 13.1 | 1.6 | 3.15 | 16.3 | 50 | 5.23 | 17.3 | 2.73 | 9.2 | 1.74 | 3.42 |  | 
COc1ccc(O)c2c1C(=O)CCCC2=O |  | > 100 |  | > 100 |  | > 100 |  |  |  |  |  |  |  | > 100 |  | > 100 |  | > 100 |  | 
CC(=O)/C(C)=N/N/C(N)=N\S(=O)(=O)c1cc(C(=O)Nc2ccccc2)c(Cl)cc1SCc1ccccc1 | 7.89 | > 100 | > 100 | > 100 | 8.6 | > 100 | 76.7 | > 100 |  |  | > 100 | > 100 | 24 | > 100 | 12.3 | > 100 | 0.337 | > 100 | 6.2 | > 100
COC(=O)C1=C(C(=O)OC)C2(C(=O)OC)OC1(OC)C(C1(C(=O)OC)C(C(=O)OC)=C1C(=O)OC)=C2C(=O)OC (configuration not stated) |  | > 100 |  | > 100 |  | > 100 |  |  |  | > 100 |  |  |  | > 100 |  |  |  | > 100 |  | > 100
O=Nc1c(O)ccc2ccccc12 | 2.16 | 7.52 | 15.3 | 28.9 | 2.28 | 7.04 | 2.03 | 4.71 |  |  | 2.45 | 8.24 | 1.46 | 2.85 | 1.29 | 2.57 | 2.25 | 5.87 | 2.16 | 5.86
CCS/C(Nc1ccccc1)=C(\C#N)C(=O)Nc1ccc(OC)cc1 | 5.04 | > 100 | 3.28 | 50.2 | 4.37 | > 100 | 2.71 | > 100 |  |  | 4.07 | > 100 | 2.2 | 8.19 | 7.61 | > 100 | 1.95 | 16.4 | 1.54 | > 100
COc1ccc2c(c1)CC[C@@H]1C2CC[C@]2(C)C(=O)NC(=O)CC12 (some centres not stated) |  | > 100 |  | > 100 |  | > 100 |  |  |  | > 100 |  |  |  | > 100 |  |  |  | > 100 |  | 
O=[N+]([O-])c1ccc(Cl)c(C2SCc3nc4ccccc4n32)c1 (configuration not stated) |  | > 100 |  | 88 |  | > 100 |  |  |  | 45.3 |  |  |  | 30.4 |  |  |  | > 100 |  | > 100
O=C1C(c2ccccc2)=C(c2ccccc2)C(c2ccc(CCCCCCc3ccc(C4=C(c5ccccc5)C(=O)C(c5ccccc5)=C4c4ccccc4)cc3)cc2)=C1c1ccccc1 |  | > 100 |  |  |  | > 100 |  |  |  | > 100 |  |  |  | > 100 |  | > 100 |  | > 100 |  | 
O=c1c([Se]c2coc3ccccc3c2=O)coc2ccccc12 |  | 32.1 |  | 29.8 |  | 25.5 |  |  |  | 31.7 |  |  |  | 29.9 |  | 32.6 |  | 12.3 |  | 22.4
COc1cc(Br)c(CC2=NCCc3cc(OC)c(OC)cc32)cc1OC |  | > 100 |  | > 100 |  | > 100 |  |  |  | 60.3 |  |  |  | 36 |  | > 100 |  | > 100 |  | > 100
COc1ccccc1/C=C\c1cc(OC)c(OC)c(OC)c1 |  | > 100 |  |  |  | > 100 |  |  |  | 81.6 |  |  |  | 13.5 |  | > 100 |  | > 100 |  | 
COc1ccc(NC(=O)c2cc(OC)c(OC)c(OC)c2)cc1O | 13.6 | > 100 | 4.95 | > 100 | 4.98 | > 100 | 2.58 | > 100 | 0.861 | > 100 |  |  | 1.43 | 48.6 | 15.3 | > 100 | 4.21 | > 100 | 0.313 | > 100
CCOC(=O)C(C[Si](C)(C)C)P(=O)(OCC)OCC (configuration not stated) |  | > 100 |  | > 100 |  | > 100 |  |  |  | > 100 |  |  |  | > 100 |  | > 100 |  | > 100 |  | > 100
COc1ccc(C(=O)C=C2NCCN2)cc1 |  | > 100 |  | > 100 |  | > 100 |  |  |  | > 100 |  |  |  | > 100 |  | > 100 |  | > 100 |  | > 100
COc1cc(C2C(C(=O)Nc3ccccc3)=C(C)NC(C)=C2C(=O)Nc2ccccc2)ccc1O |  | > 100 |  |  |  | 85.1 |  |  |  | 88.5 |  |  |  |  |  | > 100 |  | > 100 |  | 93.3
O=c1[nH]c(=S)[nH]c(O)c1/C=C1\C=CC=N1 |  | 29.6 |  | > 100 |  | 17.9 |  |  |  | 36.1 |  |  |  | > 100 |  | 32 |  | 18.7 |  | 18
CC(C)(C)CC(C)(C)c1ccc(OCCOCCSC(=N)N)cc1 | 1.72 | 3.22 | 2.74 | 7.39 | 1.86 | 3.56 | 1.51 | 3.22 | 1.89 | 7.92 | 2.28 | 6.14 |  |  | 1.54 | 3.1 | 1.5 | 2.83 |  | 
Cc1ccc(NC(=O)C(=O)Cc2nc3ccccc3o2)c(C)c1 |  | > 100 |  | > 100 |  | > 100 |  |  |  | > 100 |  |  |  |  |  | > 100 |  | > 100 |  | 
CCC1(CN(C)C)CC/C(=C\c2ccc3c(c2)OCO3)C1=O (configuration not stated) |  | > 100 |  |  |  | > 100 |  |  |  | > 100 |  |  |  | > 100 |  | > 100 |  | > 100 |  | 
